The values below come from patent publication US7612200B2, “Inhibitors of protein kinases” (Locus Pharmaceuticals, Inc., priority 2004, dated 2009).

Each structure is given as a SMILES string.

Common to all, as to format: biochemical
The target of assay [1] is Ret (Homo sapiens, UniProt P07949). The experiment in a line: Protein kinase inhibition, Ret. The note with it: Rate (μM) 2, read-out: % Control.
Assay [2] concerns the target ROCKI (Homo sapiens, UniProt Q13464). The experiment in a line: Protein kinase inhibition, ROCKI (human). The note with it: Rate (μM) 2, read-out: % Control.
For assay [3], the target named is Lyn (Mus musculus, UniProt P25911). The experiment in a line: Protein kinase inhibition, Lyn (mouse). As to conditions: Rate (μM) 2, read-out: % Control.
Assay [4] deals with Pyk2 (Homo sapiens, UniProt Q14289). The experiment in a line: Protein kinase inhibition, Pyk2. The note with it: Rate (μM) 2, read-out: % Control.
In assay [5] the target is KDR (Homo sapiens, UniProt P35968). The experiment in a line: Protein kinase inhibition, KDR. As to conditions: Rate (μM) 2, read-out: % Control.
Assay [6] concerns the target p38β (Homo sapiens, UniProt Q15759). The experiment in a line: SAPK2b Kinase Activity (p38β). The note with it: compound at 2 μm. How it is done:
(§1) SAPK2b Kinase Activity: In a final reaction volume of 25 μl, SAPK2b (h) (5-10 mU) is incubated with 25 mM Tris pH 7.5, 0.02 mM EGTA, 0.33 mg/ml myelin basic protein, 10 mM MgAcetate and [γ-^33P-ATP] (specific activity approx. 500 cpm/pmol, concentration as required). The reaction is initiated by the addition of the MgATP mix. After incubation for 40 minutes at room temperature, the reaction is stopped by the addition of 5 μl of a 3% phosphoric acid solution. 10 μl of the reaction is the spotted onto a P30 filtermat and washed three times for 5 minutes in 75 mM phosphoric acid and once in methanol prior to drying and scintillation counting.

For assay [7], the target named is DDR2 (Homo sapiens, UniProt Q16832). The experiment in a line: Protein kinase inhibition, DDR2. The note with it: Rate (μM) 2, read-out: % Control.
Assay [8] has as its target Hck (Homo sapiens, UniProt P08631). The experiment in a line: Protein kinase inhibition, Hck. The note with it: Rate (μM) 2, read-out: % Control.
In assay [9] the target is EphA5 (Homo sapiens, UniProt P54756). The experiment in a line: Protein kinase inhibition, EphA5. As to conditions: Rate (μM) 2.
For assay [10], the target named is Tie2 (Homo sapiens, UniProt Q02763). The experiment in a line: Tie2 Kinase Activity. How it is done:
Tie2 Kinase Activity: In a final reaction volume of 25 μl, Tie2 (h) (5-10 mU) is incubated with 8 mM MOPS pH 7.0, 0.2 mM EDTA, 0.5 mM MnCl2, 0.1 mg/ml poly(Glu, Tyr) 4:1, 10 mM MgAcetate and [γ-^33P-ATP] (specific activity approx. 500 cpm/pmol, concentration as required). The reaction is initiated by the addition of the MgATP mix. After incubation for 40 minutes at room temperature, the reaction is stopped by the addition of 5 μl of a 3% phosphoric acid solution. 10 μl of the reaction is then spotted onto a Filtermat A and washed three times for 5 minutes in 75 mM phosphoric acid and once in methanol prior to drying and scintillation counting.

Assay [11] concerns the target JNK3 (Homo sapiens, UniProt P53779). The experiment in a line: JNK3 Kinase Activity. As to conditions: compound at 2 μm. How it is done:
as §1, with “JNK3 Kinase” for “SAPK2b Kinase”, “μl, JNK3” for “μl, SAPK2b”, “with 50” for “with 25”, “7.5, 0.1” for “7.5, 0.02”, “EGTA, 0.1% β-mercaptoethanol, 250 μM peptide,” for “EGTA, 0.33 mg/ml myelin basic protein,”, “is then” for “is the”

The target of assay [12] is Lyn (Homo sapiens, UniProt P07948). The experiment in a line: Lyn Kinase Activity. The note with it: compound at 2 μm. As to the method: Lyn Kinase Activity: In a final reaction volume of 25 μl, Lyn (h) (5-10 mU) is incubated with 50 mM Tris pH 7.5, 0.1 mM EGTA, 0.1 mM Na3VO4, 0.1% β-mercaptoethanol, 0.1 mg/ml poly(Glue, Tyr) 4:1, 10 mM MgAcetate and [γ-^33P-ATP] (specific activity approx. 500 cpm/pmol, concentration as required). The reaction is initiated by the addition of the MgATP mix. After incubation for 40 minutes at room temperature, the reaction is stopped by the addition of 5 μl of a 3% phosphoric acid solution. 10 μl of the reaction is then spotted onto a Filtermat A and washed three times for 5 minutes in 75 mM phosphoric acid and once in methanol prior to drying and scintillation counting.

Assay [13] addresses P70S6K (Homo sapiens, UniProt P23443). The experiment in a line: Protein kinase inhibition, P70S6K. As to conditions: Rate (μM) 2, read-out: % Control.
The target in assay [14] is MINK (Homo sapiens, UniProt Q8N4C8). The experiment in a line: Protein kinase inhibition, MINK. The note with it: Rate (μM) 2, read-out: % Control.
In assay [15] the target is MKK6 (Homo sapiens, UniProt P52564). The experiment in a line: Protein kinase inhibition, MKK6. The note with it: Rate (μM) 2, read-out: % Control.
Assay [16] addresses EphA2 (Homo sapiens, UniProt P29317). The experiment in a line: Protein kinase inhibition, EphA2. The note with it: Rate (μM) 2, read-out: % Control.
In assay [17] the target is Mnk2 (Homo sapiens, UniProt Q9HBH9). The experiment in a line: Protein kinase inhibition, Mnk2. As to conditions: Rate (μM) 2, read-out: % Control.
Assay [18] addresses EphA8 (Homo sapiens, UniProt P29322). The experiment in a line: Protein kinase inhibition, EphA8. The note with it: Rate (μM) 2, read-out: % Control.
In assay [19] the target is Ros (Homo sapiens, UniProt P08922). The experiment in a line: Protein kinase inhibition, Ros. As to conditions: Rate (μM) 2, read-out: % Control.
Assay [20] has as its target EphA7 (Homo sapiens, UniProt Q15375). The experiment in a line: Protein kinase inhibition, EphA7. The note with it: Rate (μM) 2, read-out: % Control.
The target of assay [21] is p38α (Homo sapiens, UniProt Q16539). The experiment in a line: SAPK2a Kinase Activity (p38α). How it is done: as §1, with “SAPK2a” for “SAPK2b”
p38α, sequence (Q16539 whole entry): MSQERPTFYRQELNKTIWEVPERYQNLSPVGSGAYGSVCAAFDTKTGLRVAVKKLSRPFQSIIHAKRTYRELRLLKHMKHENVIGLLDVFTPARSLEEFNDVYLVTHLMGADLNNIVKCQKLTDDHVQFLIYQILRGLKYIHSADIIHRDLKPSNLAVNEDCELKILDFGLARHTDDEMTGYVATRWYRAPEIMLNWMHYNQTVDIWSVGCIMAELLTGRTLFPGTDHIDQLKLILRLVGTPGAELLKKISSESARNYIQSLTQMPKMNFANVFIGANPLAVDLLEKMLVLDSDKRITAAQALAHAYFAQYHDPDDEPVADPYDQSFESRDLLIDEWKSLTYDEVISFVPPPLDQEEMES

Tie2, sequence (Q02763 23-1124): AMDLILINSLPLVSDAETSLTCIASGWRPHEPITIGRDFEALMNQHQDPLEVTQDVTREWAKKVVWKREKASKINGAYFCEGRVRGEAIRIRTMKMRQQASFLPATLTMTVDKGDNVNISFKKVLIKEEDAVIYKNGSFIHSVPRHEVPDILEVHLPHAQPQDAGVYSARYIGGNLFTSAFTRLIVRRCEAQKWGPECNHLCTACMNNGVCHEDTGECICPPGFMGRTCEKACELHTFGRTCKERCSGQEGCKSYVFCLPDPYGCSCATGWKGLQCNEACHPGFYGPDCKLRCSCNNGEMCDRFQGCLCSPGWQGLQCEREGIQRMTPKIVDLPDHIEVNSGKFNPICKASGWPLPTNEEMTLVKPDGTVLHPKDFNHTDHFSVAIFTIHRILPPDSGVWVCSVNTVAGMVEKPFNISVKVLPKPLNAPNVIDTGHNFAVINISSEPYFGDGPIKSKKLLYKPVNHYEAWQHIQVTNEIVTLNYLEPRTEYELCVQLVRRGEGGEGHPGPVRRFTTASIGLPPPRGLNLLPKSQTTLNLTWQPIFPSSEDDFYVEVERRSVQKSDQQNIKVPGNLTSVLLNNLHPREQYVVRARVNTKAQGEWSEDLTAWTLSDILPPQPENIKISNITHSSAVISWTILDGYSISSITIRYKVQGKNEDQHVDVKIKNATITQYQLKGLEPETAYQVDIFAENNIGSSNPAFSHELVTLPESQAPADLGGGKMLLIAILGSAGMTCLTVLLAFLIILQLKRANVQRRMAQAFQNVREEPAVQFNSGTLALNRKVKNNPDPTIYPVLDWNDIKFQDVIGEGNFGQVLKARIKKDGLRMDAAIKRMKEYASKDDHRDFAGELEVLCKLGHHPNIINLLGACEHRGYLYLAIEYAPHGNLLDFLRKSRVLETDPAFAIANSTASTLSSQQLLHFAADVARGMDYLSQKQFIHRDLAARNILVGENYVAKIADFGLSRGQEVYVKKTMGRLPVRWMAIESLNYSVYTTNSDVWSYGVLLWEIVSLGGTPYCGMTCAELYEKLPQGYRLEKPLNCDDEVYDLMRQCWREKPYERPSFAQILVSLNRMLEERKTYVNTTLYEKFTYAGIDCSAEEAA
EphA7, sequence (Q15375 28-998): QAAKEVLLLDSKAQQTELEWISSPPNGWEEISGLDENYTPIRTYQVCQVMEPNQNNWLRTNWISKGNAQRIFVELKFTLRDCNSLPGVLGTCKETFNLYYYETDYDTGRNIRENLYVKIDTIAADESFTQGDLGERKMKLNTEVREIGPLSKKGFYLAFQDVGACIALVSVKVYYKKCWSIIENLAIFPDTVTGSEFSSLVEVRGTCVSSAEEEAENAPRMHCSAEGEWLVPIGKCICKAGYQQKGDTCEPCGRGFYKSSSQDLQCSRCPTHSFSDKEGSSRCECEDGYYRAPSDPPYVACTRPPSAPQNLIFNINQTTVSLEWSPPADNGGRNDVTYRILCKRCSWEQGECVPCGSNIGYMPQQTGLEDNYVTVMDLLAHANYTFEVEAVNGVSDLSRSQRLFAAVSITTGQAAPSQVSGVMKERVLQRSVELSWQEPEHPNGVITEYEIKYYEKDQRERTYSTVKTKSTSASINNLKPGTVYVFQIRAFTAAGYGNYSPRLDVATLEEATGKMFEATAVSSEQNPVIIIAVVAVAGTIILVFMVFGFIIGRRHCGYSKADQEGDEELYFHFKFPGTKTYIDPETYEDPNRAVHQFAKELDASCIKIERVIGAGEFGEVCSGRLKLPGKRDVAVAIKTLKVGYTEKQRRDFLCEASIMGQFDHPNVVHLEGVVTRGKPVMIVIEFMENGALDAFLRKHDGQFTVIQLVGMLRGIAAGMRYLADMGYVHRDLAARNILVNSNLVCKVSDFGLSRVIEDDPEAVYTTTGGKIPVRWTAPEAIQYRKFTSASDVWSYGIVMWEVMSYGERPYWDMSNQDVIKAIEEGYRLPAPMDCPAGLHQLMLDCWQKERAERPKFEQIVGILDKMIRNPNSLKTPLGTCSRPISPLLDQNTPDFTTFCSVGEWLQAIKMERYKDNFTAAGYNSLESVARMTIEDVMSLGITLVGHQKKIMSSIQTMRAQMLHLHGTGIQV
P70S6K, sequence (P23443 whole entry): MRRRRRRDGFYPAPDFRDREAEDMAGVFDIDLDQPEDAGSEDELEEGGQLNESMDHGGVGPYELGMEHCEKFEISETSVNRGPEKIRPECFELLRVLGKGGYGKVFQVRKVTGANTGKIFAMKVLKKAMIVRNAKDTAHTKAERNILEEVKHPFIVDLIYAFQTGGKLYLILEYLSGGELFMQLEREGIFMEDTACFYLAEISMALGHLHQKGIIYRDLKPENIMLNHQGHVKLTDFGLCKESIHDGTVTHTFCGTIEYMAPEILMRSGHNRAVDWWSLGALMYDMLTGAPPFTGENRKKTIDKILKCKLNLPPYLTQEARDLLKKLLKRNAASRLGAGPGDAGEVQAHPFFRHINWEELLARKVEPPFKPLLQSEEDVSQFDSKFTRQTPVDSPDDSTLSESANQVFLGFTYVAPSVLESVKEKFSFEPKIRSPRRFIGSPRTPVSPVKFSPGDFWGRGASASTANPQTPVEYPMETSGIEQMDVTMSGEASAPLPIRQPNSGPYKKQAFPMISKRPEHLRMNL
Hck, sequence (P08631 whole entry): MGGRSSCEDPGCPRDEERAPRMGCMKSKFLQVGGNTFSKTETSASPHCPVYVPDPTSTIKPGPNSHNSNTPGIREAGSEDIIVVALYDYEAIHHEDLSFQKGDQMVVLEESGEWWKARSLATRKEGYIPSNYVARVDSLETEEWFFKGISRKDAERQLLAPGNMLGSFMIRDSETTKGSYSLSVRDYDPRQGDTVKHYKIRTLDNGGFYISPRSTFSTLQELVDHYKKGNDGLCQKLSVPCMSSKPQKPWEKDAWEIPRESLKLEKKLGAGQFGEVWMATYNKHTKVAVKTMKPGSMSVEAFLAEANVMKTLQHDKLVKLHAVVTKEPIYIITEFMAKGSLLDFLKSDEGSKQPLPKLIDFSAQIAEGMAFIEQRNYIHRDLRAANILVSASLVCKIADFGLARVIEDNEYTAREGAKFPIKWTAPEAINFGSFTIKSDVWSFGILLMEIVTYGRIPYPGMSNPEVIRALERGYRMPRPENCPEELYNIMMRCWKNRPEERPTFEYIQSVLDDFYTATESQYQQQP
Pyk2, sequence (Q14289 whole entry): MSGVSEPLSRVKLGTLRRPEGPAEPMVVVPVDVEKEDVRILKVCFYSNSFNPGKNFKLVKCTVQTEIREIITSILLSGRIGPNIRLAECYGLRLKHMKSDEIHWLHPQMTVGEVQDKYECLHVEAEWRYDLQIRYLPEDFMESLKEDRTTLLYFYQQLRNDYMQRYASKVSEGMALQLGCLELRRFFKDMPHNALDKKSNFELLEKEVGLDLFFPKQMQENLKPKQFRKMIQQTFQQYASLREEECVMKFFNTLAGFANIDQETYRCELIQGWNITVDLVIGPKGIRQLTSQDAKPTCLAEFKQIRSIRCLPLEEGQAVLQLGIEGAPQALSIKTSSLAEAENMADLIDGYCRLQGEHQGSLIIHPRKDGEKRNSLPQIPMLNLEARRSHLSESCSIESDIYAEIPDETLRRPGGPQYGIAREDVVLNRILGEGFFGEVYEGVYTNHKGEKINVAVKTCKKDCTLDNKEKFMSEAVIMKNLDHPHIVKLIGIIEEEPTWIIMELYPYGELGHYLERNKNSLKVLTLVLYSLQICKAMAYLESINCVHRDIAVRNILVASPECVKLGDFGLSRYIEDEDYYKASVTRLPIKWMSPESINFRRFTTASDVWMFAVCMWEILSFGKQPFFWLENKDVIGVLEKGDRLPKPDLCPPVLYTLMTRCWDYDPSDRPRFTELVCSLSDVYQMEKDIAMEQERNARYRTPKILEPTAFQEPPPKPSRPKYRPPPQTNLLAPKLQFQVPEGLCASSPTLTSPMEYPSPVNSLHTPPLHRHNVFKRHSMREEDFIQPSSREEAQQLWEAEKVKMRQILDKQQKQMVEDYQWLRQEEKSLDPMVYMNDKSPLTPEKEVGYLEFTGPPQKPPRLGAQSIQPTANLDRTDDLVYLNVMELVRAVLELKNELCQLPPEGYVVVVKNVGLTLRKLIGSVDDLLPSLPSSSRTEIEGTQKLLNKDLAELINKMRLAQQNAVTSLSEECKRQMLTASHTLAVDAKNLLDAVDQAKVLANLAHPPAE
Lyn (Homo sapiens, UniProt P07948), sequence (P07948 whole entry): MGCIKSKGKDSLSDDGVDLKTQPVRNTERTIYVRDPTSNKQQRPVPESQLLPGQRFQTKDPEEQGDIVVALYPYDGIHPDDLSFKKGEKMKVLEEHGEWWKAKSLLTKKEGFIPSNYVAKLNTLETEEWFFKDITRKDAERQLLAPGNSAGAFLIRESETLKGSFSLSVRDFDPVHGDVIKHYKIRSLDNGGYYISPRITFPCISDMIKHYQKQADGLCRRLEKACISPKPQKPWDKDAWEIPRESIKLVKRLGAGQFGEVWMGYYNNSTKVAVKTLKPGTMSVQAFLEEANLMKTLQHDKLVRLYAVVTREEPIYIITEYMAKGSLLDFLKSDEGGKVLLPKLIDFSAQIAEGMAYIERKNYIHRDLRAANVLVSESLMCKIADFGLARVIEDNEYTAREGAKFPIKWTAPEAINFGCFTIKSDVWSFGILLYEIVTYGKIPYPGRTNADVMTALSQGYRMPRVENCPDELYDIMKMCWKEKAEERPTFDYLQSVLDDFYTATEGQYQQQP

On to `CC(C)(C)c1cc(C(=O)N2CCS(=O)(=O)CC2)c(NC(=O)Nc2ccc(Oc3ccncc3)cc2)s1` [Example 3, 1-[5-tert-Butyl-3-(1,1-dioxo-1λ^6-thiomorpholine-4-carbonyl)thiophen-2-yl]-3-[4-(pyridin-4-yloxy)phenyl]urea], for which the remaining activity at 2 µM in assay [1] lay in the range of 76 to 100%; in assay [2], 51 to 75%; in [3], 76 to 100%; in assay [4] it was 51 to 75%; in assay [5], 76 to 100%; in assay [7], 76 to 100%. For the same molecule, the remaining activity at 2 µM in [8] lay in the range of 76 to 100%; in assay [10] (40 min, Tie2, Human, Rate (μM) 2, read-out: % Control), 76 to 100%; in assay [13], 51 to 75%; in assay [14] it was 51 to 75%; in assay [15], 76 to 100%; in assay [16] it was 76 to 100%. Besides, the remaining activity at 2 µM in assay [17], in assay [18], in assay [19] and in [20] was 76 to 100% each time. Also, the “% Inhibition at 2 μm” value in [6] is given as 76-100%; in [10] (Tie2, compound at 2 μm), 76-100%; in [11], 0-25%; in assay [12] it was 76-100%; in assay [21] (p38α, compound at 2 μm) it was 76-100%. Also, the “% Control” value in assay [9] is on record as 76-100%. Moreover, the “% inhibition” value in assay [21] (P38a, Human, Rate (μM) 2) was 76-100%.
